# According to patent US8901105B2, “Prodrug derivatives of (E)-N-methyl-N-((3-M ethylbenzofuran-2-yl)methyl)-3-(7-oxo-5,6,7,8-tetrahydro-1,8-naphthyridin-3-yl)acrylamide” (Affinium Pharmaceuticals, Inc., priority 2012, dated 2014):
# Where a name gives a salt, the structure may show the parent alone. Read-outs that look alike come from different tables or passages of the source.
# Experiments:
# [1] = tested on: Staphylococcus aureus; assay: Broth microdilution MIC; type: cell-based; details: Staphylococcus aureus
# Experimental: (§1) Bacterial Isolates. Organisms tested in this study are listed in Table P. Clinical isolates consisted of 5 Staphylococcus aureus (MSSA), 3 Staphylococcus aureus (HA-MRSA), 2 Staphylococcus aureus (CA-MRSA), 2 Enterococcus faecalis (VSE), 2 Streptococcus pyogenes, and 2 Escherichia coli (susceptible to most antibiotics). S. aureus ATCC 29213, E. faecalis ATCC 29212, S. pneumoniae ATCC 49619, and E. coli ATCC 25922 were tested for the purposes of quality control.
# (§2) Minimal Inhibitory Concentrations (MIC) values against the selected isolates were determined using the reference broth microdilution method according to the Clinical Laboratory Standards Institute (CLSI) guidelines.
# (§3) The MIC was read and recorded as the lowest concentration of drug that inhibited visible growth of the organism.
# [2] = tested on: Enterococcus faecalis; assay: Broth microdilution MIC; type: cell-based
# Experimental: as §1, §2, §3
# [3] = tested on: Streptococcus pyogenes; assay: Broth microdilution MIC; type: cell-based
# Experimental: as §1, §2, §3
# [4] = tested on: Escherichia coli; assay: Broth microdilution MIC; type: cell-based
# Experimental: as §1, §2, §3
# [5] = tested on: Streptococcus pneumoniae; assay: Broth microdilution MIC; type: cell-based
# Experimental: as §1, §2, §3
# [6] = XRPD crystal form after storage; type: physicochemical; details: 4 weeks storage
# Experimental: (§4) Various compounds disclosed herein have been placed on long-term solid-state stability protocol. The compounds were stored in glass vials closed with PTFE lined caps at 30° C./65% RH, 40° C./75% RH, 50° C. and 60° C. (ambient humidity). The results of the study after 4 weeks are shown in Table B1 and after 3 months in Table B2. Appearance and purity analysis were conducted using HPLC and XPRD. The HPLC analyses were conducted using standard equipment such as a Agilent HP1100 HPLC (Station ID: LZPES HPLC 04) with YMC-Pack ODS-AQ sub 3 μm, 150×4.6 mm Samples were prepared for XRPD by sprinkling ˜20 mg onto a Si wafer zero background plate and pressing the material flat to ensure the surface is smooth and level. The samples were analyzed according the equipment parameters below.
# [7] = Aqueous solubility of salts at 25° C.; type: physicochemical; details: for solubility: thermodynamic from solid; for Comments (behaviour in solubility experiment): disodium salt; for Solubility in Water: dipotassium salt
# [8] = Photostability of solid salts; type: physicochemical
# [9] = Solid-state stability (HPLC % area after storage); type: physicochemical; details: for Solid-state stability % Area: 4 weeks; for chemical stability: over 1 month at 30° C./65% RH, closed vials, light protected
# Experimental: as §4, with “mm” for “mm Samples were prepared for XRPD by sprinkling ˜20 mg onto a Si wafer zero background plate and pressing the material flat to ensure the surface is smooth and level. The samples were analyzed according the equipment parameters below.”
# [10] = ATCC29213, S. aureus ATCC 29213, read-out: MIC
# [11] = MRSA, S. aureus 3083, HA-MRSA, read-out: MIC
# [12] = MRSA, S. aureus 3086, HA-MRSA, read-out: MIC
# [13] = MRSA, S. aureus 3265, HA-MRSA, read-out: MIC
# [14] = MSSA, S. aureus 3104, MSSA, read-out: MIC
# [15] = MSSA, S. aureus 3107, MSSA, read-out: MIC
# [16] = MSSA, S. aureus 3245, MSSA, read-out: MIC
# [17] = MSSA, S. aureus 3250, MSSA, read-out: MIC
# [18] = MSSA, S. aureus 3856, MSSA, read-out: MIC
# [19] = S. aureus 2168, CAMRSA, read-out: MIC
# [20] = S. aureus 2294, CAMRSA, read-out: MIC
# [21] = ATCC29212, E. faecalis ATCC 29212, read-out: MIC
# [22] = E. faecalis 4158, VSE, read-out: MIC
# [23] = E. faecalis 4212, VSE, read-out: MIC
# [24] = Streptococcus pyogenes, S. pyogenes 6179, read-out: MIC
# [25] = Escherichia coli, ATCC25922, E. coli ATCC 25922, read-out: MIC
# [26] = Escherichia coli, E. coli 2214, read-out: MIC
# [27] = Escherichia coli, E. coli 5255, read-out: MIC
# [28] = ATCC49619, S. pneumoniae ATCC 49619, read-out: MIC
# [29] = Control (ambient lab conditions protected from light)
# [30] = water, 25° C., mg free acid equivalent/mL, read-out: Solubility in Water
# [31] = water, 25° C., mg free acid equivalent/mL
compound,measurement,setting,value
O=C(O)c1cn(C2CC2)c2cc(N3CCNCC3)c(F)cc2c1=O [Ciprofloxacin],MIC,[1]; [10],0.5 µg/mL
same,MIC,[1]; [11],32 µg/mL
same,MIC,[1]; [12],> 64 µg/mL
same,MIC,[1]; [13],> 64 µg/mL
same,MIC,[1]; [14],0.25 µg/mL
same,MIC,[1]; [15],0.5 µg/mL
same,MIC,[1]; [16],0.5 µg/mL
same,MIC,[1]; [17],2 µg/mL
same,MIC,[1]; [18],> 64 µg/mL
same,MIC,[1]; [19],16 µg/mL
same,MIC,[1]; [20],> 64 µg/mL
same,MIC,[2]; [21],0.5 µg/mL
same,MIC,[2]; [22],64 µg/mL
same,MIC,[2]; [23],32 µg/mL
same,MIC,[3]; S. pyogenes 6528,0.5 µg/mL
same,MIC,[3]; [24],0.5 µg/mL
same,MIC,[4]; [25],0.008 µg/mL
same,MIC,[4]; [26],0.015 µg/mL
same,MIC,[4]; [27],0.008 µg/mL
same,MIC,[5]; [28],0.5 µg/mL
Cc1c(CN(C)C(=O)/C=C/c2cnc3c(c2)CCC(=O)N3COP(=O)([O-])[O-])oc2ccccc12.[Na+].[Na+] [Compound 9],change in XRPD,[6],no change
same,solubility,"[7]; aqueous buffer, pH 6.6, aqueous buffer, originally amorphous, crystallized within 7 days in aqueous buffer, pH 6.6-7.1, read-out: solubility after crystallization in aqueous buffer",< 5000 µg/mL
same,Comments (behaviour in solubility experiment),"[7]; water, 25° C.",Forms gels
same,Comments (behaviour in solubility experiment),"[7]; water, 25° C., listed as bis-sodium",formed unwieldy gels
same,Control % Area (Table C),[8]; control sample at ambient lab conditions protected from light,96.4 % Area
same,Photo-stability % Area,[8]; exposed to 60% of ICH minimum,55.9 % Area
same,Solid-state stability % Area,[9]; 30° C./65% RH,96.3 % Area
same,Solid-state stability % Area,[9]; 40° C./75% RH,84.4 % Area
same,Solid-state stability % Area,[9]; 50° C./ambient humidity,86.8 % Area
same,Solid-state stability % Area,[9]; 60° C./ambient humidity,85.9 % Area
same,Solid-state stability % Area,[9]; [29],96.4 % Area
same,chemical stability,[9],chemically stable
Cc1c(CN(C)C(=O)/C=C/c2cnc3c(c2)CCC(=O)N3COP(=O)([O-])[O-])oc2ccccc12.[K+].[K+] [Compound 11],change in XRPD,[6],some changes
same,content after storage (degradation),[9]; 4 weeks at 40/75,~65%
same,chemical stability,[9]; 40° C./75% RH and 50° C.,not chemically stable
"Cc1c(CN(C)C(=O)/C=C/c2cnc3c(c2)CCC(=O)N3COP2(=O)[O][Mg][O]2)oc2ccccc12 [Compound 12, (E)-6-[(N-methyl-((3-methylbenzofuran-2-yl)methyl)amino)-3-oxoprop-1-en-1-yl)-2-oxo-3,4-dihydro-1,8-naphthyridin-1 (2H)-yl]methylphosphate magnesium salt]",solubility,[7]; [30],< 1000 µg/mL
"Cc1c(CN(C)C(=O)/C=C/c2cnc3c(c2)CCC(=O)N3COP2(=O)[O][Ca][O]2)oc2ccccc12 [Compound 13, (E)-6-[(N-methyl-((3-methylbenzofuran-2-yl)methyl)amino)-3-oxoprop-1-en-1-yl)-2-oxo-3,4-dihydro-1,8-naphthyridin-1(2H)-yl]methylphosphate calcium salt]",solubility,[7]; [30],< 100 µg/mL
"Cc1c(CN(C)C(=O)/C=C/c2cnc3c(c2)CCC(=O)N3)oc2ccccc12 [Compound IV, (E)-N-methyl-N-((3-methylbenzofuran-2-yl)methyl)-3-(7-oxo-5,6,7,8-tetrahydro-1,8-naphthyridin-3-yl)acrylamide, reference compound]",solubility,"[7]; water, 25 °C, water, water, 25° C., mg free acid equivalent/mL, read-out: Solubility in Water",< 1 µg/mL
"Cc1c(CN(C)C(=O)/C=C/c2cnc3c(c2)CCC(=O)N3)oc2ccccc12 [Compound Z, (E)-N-methyl-N-((3-methylbenzofuran-2-yl)methyl)-3-(7-oxo-5,6,7,8-tetrahydro-1,8-naphthyridin-3-yl)acrylamide]",MIC,[1]; [10],0.004 µg/mL
same,MIC,[1]; [11],0.004 µg/mL
same,MIC,[1]; [12],0.03 µg/mL
same,MIC,[1]; [13],0.004 µg/mL
same,MIC,[1]; [14],0.015 µg/mL
same,MIC,[1]; [15],0.004 µg/mL
same,MIC,[1]; [16],0.015 µg/mL
same,MIC,[1]; [17],0.004 µg/mL
same,MIC,[1]; [18],0.004 µg/mL
same,MIC,[1]; [19],0.004 µg/mL
same,MIC,[1]; [20],0.03 µg/mL
same,MIC,[2]; [21],> 2 µg/mL
same,MIC,[2]; [22],> 2 µg/mL
same,MIC,[2]; [23],> 2 µg/mL
same,MIC,[3]; S. pyogenes 6528,>2 µg/mL
same,MIC,[3]; [24],> 2 µg/mL
same,MIC,[4]; [25],> 2 µg/mL
same,MIC,[4]; [26],> 2 µg/mL
same,MIC,[4]; [27],> 2 µg/mL
same,MIC,[5]; [28],> 2 µg/mL
CC(=O)NC[C@H]1CN(c2ccc(N3CCOCC3)c(F)c2)C(=O)O1 [Linezolid],MIC,[1]; [10],4 µg/mL
same,MIC,[1]; [11],2 µg/mL
same,MIC,[1]; [12],2 µg/mL
same,MIC,[1]; [13],2 µg/mL
same,MIC,[1]; [14],2 µg/mL
same,MIC,[1]; [15],2 µg/mL
same,MIC,[1]; [16],2 µg/mL
same,MIC,[1]; [17],4 µg/mL
same,MIC,[1]; [18],2 µg/mL
same,MIC,[1]; [19],2 µg/mL
same,MIC,[1]; [20],2 µg/mL
same,MIC,[2]; [21],1 µg/mL
same,MIC,[2]; [22],1 µg/mL
same,MIC,[2]; [23],1 µg/mL
same,MIC,[3]; S. pyogenes 6528,1 µg/mL
same,MIC,[3]; [24],1 µg/mL
same,MIC,[4]; [25],64 µg/mL
same,MIC,[4]; [26],> 64 µg/mL
same,MIC,[4]; [27],64 µg/mL
same,MIC,[5]; [28],1 µg/mL
CN[C@H](CC(C)C)C(=O)N[C@H]1C(=O)N[C@@H](CC(N)=O)C(=O)N[C@H]2C(=O)N[C@H]3C(=O)N[C@H](C(=O)N[C@H](C(=O)O)c4cc(O)cc(O)c4-c4cc3ccc4O)[C@H](O)c3ccc(c(Cl)c3)Oc3cc2cc(c3O[C@@H]2O[C@H](CO)[C@@H](O)[C@H](O)[C@H]2O[C@H]2C[C@](C)(N)[C@H](O)[C@H](C)O2)Oc2ccc(cc2Cl)[C@H]1O [Vancomycin],MIC,"[1]; ATCC29213, S. aureus ATCC 29213",0.5 µg/mL
same,MIC,"[1]; MRSA, S. aureus 3083, HA-MRSA",0.5 µg/mL
same,MIC,"[1]; MRSA, S. aureus 3086, HA-MRSA",1 µg/mL
same,MIC,"[1]; MRSA, S. aureus 3265, HA-MRSA",0.5 µg/mL
same,MIC,"[1]; MSSA, S. aureus 3104",0.5 µg/mL
same,MIC,"[1]; MSSA, S. aureus 3107",0.5 µg/mL
same,MIC,"[1]; MSSA, S. aureus 3245",0.5 µg/mL
same,MIC,"[1]; MSSA, S. aureus 3250",0.5 µg/mL
same,MIC,"[1]; MSSA, S. aureus 3856",1 µg/mL
same,MIC,"[1]; S. aureus 2168, CAMRSA",1 µg/mL
same,MIC,"[1]; S. aureus 2294, CAMRSA",1 µg/mL
same,MIC,"[2]; ATCC29212, E. faecalis ATCC 29212",1 µg/mL
same,MIC,"[2]; E. faecalis 4158, VSE",> 64 µg/mL
same,MIC,"[2]; E. faecalis 4212, VSE",16 µg/mL
same,MIC,[3]; S. pyogenes 6528,0.25 µg/mL
same,MIC,[3]; Streptococcus pyogenes,0.25 µg/mL
same,MIC,[4]; E. coli 5255,>64 µg/mL
same,MIC,[4]; Escherichia coli,> 64 µg/mL
same,MIC,"[4]; Escherichia coli, ATCC25922",> 64 µg/mL
same,MIC,[5]; ATCC49619,0.12 µg/mL
"(E)-6-[(N-methyl-((3-methylbenzofuran-2-yl)methyl)amino)-3-oxoprop-1-en-1-yl)-2-oxo-3,4-dihydro-1,8-naphthyridin-1(2H)-yl]methylphosphate dipotassium salt [Bis-Potassium (amorphous) (Compound 11)]",Solubility in Water,[7]; [31],>100000 µg/mL
"(E)-6-[(N-methyl-((3-methylbenzofuran-2-yl)methyl)amino)-3-oxoprop-1-en-1-yl)-2-oxo-3,4-dihydro-1,8-naphthyridin-1(2H)-yl]methylphosphate dipotassium salt [Bis-Potassium (crystalline) (Compound 11)]",Solubility in Water,[7]; [31],30000 to 35000 µg/mL
same,Solid-state stability % Area,[9]; 30° C./65% RH,87.8 % Area
same,Solid-state stability % Area,[9]; 40° C./75% RH,64.3 % Area
same,Solid-state stability % Area,[9]; 50° C./ambient humidity,72.5 % Area
same,Solid-state stability % Area,[9]; 60° C./ambient humidity,50.7 % Area
same,Solid-state stability % Area,[9]; [29],95.4 % Area
